This note sets out measurements from patent publication US8778886B2, “Methods of making and using a cell penetrating peptide for enhanced delivery of nucleic acids, proteins, drugs, and adenovirus to tissues and cells, and compositions and kits” (Tufts University, priority 2007, dated 2014).

For data set [1], the system named is HER cells. Description: C-POD delivery of siRNA, silencing of GFP expression. It counts as cell-based, human. The note with it: pEGFP delivered by C-POD, no siRNA. Here is the method:
pCAGRFP was compacted with C-POD at a ratio of 400 peptide/plasmid molecules. Briefly, 2 μg of DNA and the appropriate concentration of peptide were each suspended in 15 μL of either 100 μM sodium phosphate or 5% dextrose buffer. The peptide and DNA solutions were mixed and incubated for 30 minutes at room temperature prior to addition to HER cells. After 48 hours, cells were resuspended in PBS for FACS analysis. For electron microscopy, peptide/DNA complexes were prepared as above. Particles were bound to glow-discharged copper grids, stained with urinyl acetate, and visualized on a CMIO Transmission Electron Microscope (Philips) using Digital Micrograph software (Gatan, Inc). C-POD was used to compact both pd2-EGFP-NI and GFP Duplex I at concentrations of 450 particles/DNA molecule and 25 particles/duplex molecule, respectively, in 100 mM sodium phosphate buffer using the same procedures described above. Compacted pd2-EGFP-NI DNA, 2 μg, and 70 pmoles of GFP Duplex I diluted in DMEM+2% FBS were added simultaneously to HER cells for 4 hours. Growing medium was then added to cells and the incubation continued for 44 additional hours. […] The amount of fluorescence resulting from the Qdot-peptide complex was determined using a fluorometer and an equivalent amount of unbound Strep-Qdot was added separately as control. […] Uptake of Qdots was determined by fluorescent microscopy as described above. […]

Another data set concerns E. coli. Description: Microbicidal activity, colony count after plating. It counts as cell-based. The note with it: 2 hours at 37° C., plating on LB agar. Here is the method: Lissamine conjugated POD (L-POD) and either heparan sulfate or chondroitan sulfate were incubated together at each of molar ratios of 1:3.33, 1:6.67, and 1:8 in water for 30 minutes at room temperature. The complex was diluted in DMEM+2% FBS and added to 0.2×]06 HER cells for 5 minutes at 37° C. Following incubation, cells were trypsinized and suspended in PBS for FACS analysis as described above. To measure microbicidal activity of C-POD, XL-1 Blue cells (Stratagene, La Jolla, Calif.) were grown to mid logarithmic phase (OD600=0.600) and washed twice in a solution of 10 mM Tris, pH 7.4 and 5 mM Glucose. The cells were resuspended in 10 mL of the same solution and […] of the suspension was incubated with C-POD in a final volume of 50 μL. The peptide/bacteria cell solution was rocked for 2 hours at 37° C. The peptide-treated bacteria was diluted 1:4500 with LB broth, plated on agar, and grown overnight at 37° C. The following day, the bacterial colonies on each plate were counted to quantify peptide-related reduction in growth.
Since endophthalmitis, an infection within the eye, is regularly a complicating factor in drug delivery to ocular tissues [Ho J et al. 2007 Int Opthalmol Clin 47: 199-208], C-POD was examined for potential microbicidal activities. E. coli cells grown to mid-log phase were incubated with either H20 only or C-POD suspended in H20 at concentrations ranging from 0.03 μM to 60 μM, and cell number was determined by plating samples on LB agar. […] Greater concentrations of C-POD completely eliminated bacterial growth.

Data set [2] concerns human lung carcinoma epithelial cells (A549). Briefly: POD-GFP protein transduction in vitro, GFP-positive cells by FACS. The class given is cell-based. The note with it: A549, 10 μg protein, 2 hours. The protocol: To evaluate cellular penetration of POD fusion proteins, HER cells were seeded on Lab Tek-II chamber slides and incubated with 10 μg of POD-GFP or GFP for two hours. Following fixation, cells were visualized by light and fluorescence microscopy using an Olympus BX51 microscope with differential interference contrast (DIC) and the appropriate fluorescence filters. Images were captured using a Retiga 2000R FAST camera and QCapture Pro 5.0 (QImaging, British Columbia, Canada). To quantitate protein uptake, 0.2×10^6 of either HER or A549 cells were incubated with 10 μg POD-GFP or GFP for 2 hours. Cells were washed with PBS, pelleted and resuspended in PBS for FACS analysis. Cell membrane integrity was evaluated by measuring the percentage of Propidium Iodide (1 μM) positive cells in the presence of fusion protein. FACS analysis of protein uptake and toxicity was performed using a FACSCAlibur (Becton Dickinson, Franklin. Lakes, N.J.) and results analyzed using CellQuest Pro (Becton Dickinson). 10,000 events were counted for each analysis, which was performed in triplicate and repeated at least once. […]
(In general: A flow cytometer gives signals particle by particle.)

For data set [3], the system named is HER cells. Briefly: POD-GFP protein transduction in vitro, GFP-positive cells by FACS and localization. The class given is cell-based, human. The following applies: for GFP-positive cells: HER, 10 μg protein, 2 hours. Here is the method: (§1) To evaluate cellular penetration of POD fusion proteins, HER cells were seeded on Lab Tek-II chamber slides and incubated with 10 μg of POD-GFP or GFP for two hours. Following fixation, cells were visualized by light and fluorescence microscopy using an Olympus BX51 microscope with differential interference contrast (DIC) and the appropriate fluorescence filters. Images were captured using a Retiga 2000R FAST camera and QCapture Pro 5.0 (QImaging, British Columbia, Canada). To quantitate protein uptake, 0.2×10^6 of either HER or A549 cells were incubated with 10 μg POD-GFP or GFP for 2 hours. Cells were washed with PBS, pelleted and resuspended in PBS for FACS analysis. Cell membrane integrity was evaluated by measuring the percentage of Propidium Iodide (1 μM) positive cells in the presence of fusion protein. FACS analysis of protein uptake and toxicity was performed using a FACSCAlibur (Becton Dickinson, Franklin. Lakes, N.J.) and results analyzed using CellQuest Pro (Becton Dickinson). 10,000 events were counted for each analysis, which was performed in triplicate and repeated at least once.
HER and A549 cells were treated as above for subsequent addition of LysoTracker, ER Tracker (Molecular Probes, Carlsbad, Calif.), or DAPI, and were incubated for one hour. These reagents were removed and cells were fixed with formalin for imaging.
To determine the transduction capabilities of POD-GFP in vitro, each of approximately 0.2×10^6 human lung carcinoma epithelial cells (A549) or HER cells were incubated with 10 μg of each of purified recombinant POD-GFP or control GFP protein for 2 hours and the number of GFP-positive cells were counted by FACS. […] Similarly, 34.2±3.4% and 1.8±0.4%, respectively, of HER cells were GFP-positive when incubated with POD-GFP or GFP, respectively (FIG. 9 panel A).
In contrast to endogenous gene expression, POD-GFP in the Example herein appeared in the cytoplasm of HER cells in a punctate pattern (FIG. 9 panel B), similar to observations in examples above with L-POD peptide and similar to that of an endocytic mechanism of uptake.

Data set [4] has as its system HER cells. Description: Toxicity during protein transduction, propidium iodide uptake. It counts as cell-based, human. The note with it: HER cells incubated with protein. The protocol:
as §1
Extent of toxicity to cells during protein transduction was measured by uptake of propidium iodide (PI).

Data set [5] concerns human embryonic retinoblast (HER) cells. Description: Localization of de novo synthesized POD-GFP after plasmid transfection. The class given is cell-based. The note with it: transfection with pPODGFPHis or pGFPHis. The protocol:
Human embryonic retinoblast (HER) cells were cultured using previously described methods [Fallaux F J et al. 1996 Hum. Gene Ther. 7: 215-222]. Carcinoma human alveolar basal epithelial cells (A549, American Type Culture Collection, Manassas, Va.) were grown to 70-80% confluence in DMEM media supplemented with 10% fetal bovine serum (FBS). All cell culture procedures were performed in DMEM supplemented with 2% FBS. Transfection of plasmids was carried out using 2:1 μL Lipofectamine: μg plasmid in Opti-MEM media. Forty-eight hours post-transfection, the cells were fixed and stained with DAPI, 4′,6-diamidino-2-phenylindole.
Transfection of human embryonic retinoblast (HER) cells [Fallaux F J et al. 1996 Hum. […] Furthermore, POD-GFP appeared to concentrate in sub nuclear compartments (FIG. 7 panel B, arrowheads).

The subject of a further data set is retina. Briefly: Subretinal / intravitreal injection of POD-GFP protein in vivo. More on the design: species or system C57BL/6J mice. Here is the method: (§2) Subretinal and intravitreal injections of the fusion proteins were performed using techniques described in Cashman et al. [2006 Invest Opthalmol Vis Sci 47:3496-3504]. Briefly, 8.5 μg of POD-GFP or 6.6 μg of GFP protein was injected into the subretinal or intravitreal space respectively, of 6-8 week old C57BL/6J mice. Four independent injections were performed and yielded nearly identical results. Six hours post-injection, mice were sacrificed by CO2 inhalation and cervical dislocation. For topical delivery of the POD-GFPHis or GFP-His, C57BL/6J mice were anesthetized with xylazine/ketamine and 2 μl containing 40 μg of protein were dropped onto the […] surface. Forty-five minutes following administration, mice were sacrificed as above and eyes enucleated, washed twice in PBS, and fixed overnight in 4% paraformaldehyde. Eyes were embedded in Optimal Cutting Temperature Compound (Sakura Finetek, Torrance, Calif.) and 14 μm sections were collected using a Microm 550 cryostat.
To determine the transduction properties of POD-GFP […] an amount of 8.5 μg of each of purified POD-GFP or control GFP protein was injected into the subretinal space, i.e., between the retinal pigment epithelium (RPE) and photoreceptors, of 6 week-old male C57BL61J mice. Eyes were harvested after 6 hours and frozen sections were examined by fluorescence microscopy.
Purified POD-GFP, 6.6 μg, or that amount of control GFP protein was injected into the intravitreal space, i.e. between the lens and neural retina of 6 week-old male C57BL6/J mice, and eyes were harvested after 6 hours and frozen sections examined by fluorescence microscopy. […] Unlike with subretinal injection, no POD-GFP signal was detectable in the outer nuclear layer or RPE beyond that of background auto-fluorescence and the overall number of GFP-positive cells was less than that achieved by subretinal injection.

For the next data set, the system named is cornea. Description: Topical application of POD-GFP to cornea in vivo. More on the design: species or system C57BL6/J mouse. The following applies: 40 μg, 45 minutes. The protocol: as §2, with “Eyes were embedded in Optimal Cutting Temperature Compound (Sakura Finetek, Torrance, Calif.) and 14 μm sections were collected using a Microm 550 cryostat.” left out
To further examine localization of POD-GFP, anterior ocular tissues were dissected and the corneas were flat mounted or cross-sectioned and re-examined by fluorescence microscopy. […] In contrast, GFP-fluorescence was readily detected on both flat mounts and cross sections of corneas from mice that received topical application of POD-GFP (FIG. 12 panel B). […] No GFP-signal was detected in corneal cross-sections prepared from mice that received topical application of control GFP.

For the next data set, the system named is skin. Briefly: Topical application of POD-GFP to shaved skin in vivo. Further details: species or system C57BL6/J mice. The following applies: 40 μg; for GFP-fluorescence in skin: 24 hours. Here is the method:
Adult mice were anesthetized as described above and the abdomen shaved to reveal a 2.25 cm^2 area of skin. A dose of 40 μg of protein was applied to the skin for 24 hours. Upon completion of the treatment, animals were sacrificed and the treated skin dissected and fixed overnight in 4% paraformaldehyde and transverse sections were obtained as described herein.
To extend these observations to other organ systems, the potential of transdermal delivery of POD-fusion protein was examined. POD-GFP (40 μg) or control OFF was topically applied to shaved skin of adult C57BL6/J mice. Animals were sacrificed 24 hours later and frozen sections of the treated region were examined by fluorescence microscopy.

Regarding “CGGG(ARKKAAKA)4 (CGGGARKKAAKAARKKAAKAARKKAAKAARKKAAKA; The peptide was designed and synthesized) [C-POD]”, the GFP-positive cells with HER cells [1] was 49.13±2.23%. Also, in the data set on E. coli, the “concentration giving almost complete inhibition of bacterial growth” value came to 24.0 µM and the “concentration giving significant inhibition of bacterial growth” value turned out to be 0.30 µM.
Take “GFP: His-tagged GFP control protein [reference compound]”: the GFP-positive cells turned out to be 1.4±0.4% in data set [2] and 1.8±0.4% with HER cells [3]. The substance also yielded a PI-positive cells with HER cells [4] of 3.2±2.7%. The “localization of expressed protein” value in data set [5] is “relatively diffuse cytoplasmic and nuclear localization”. In addition, the “detection in retina by fluorescence microscopy” value (from here on “detection in retina”) is “not detected in retinal cells above background auto-fluorescence” in the data set on retina (intravitreal, 6.6 μg, 6 hours) and “barely discernible above background auto-fluorescence” with retina (subretinal, 8.5 μg, 6 hours). Moreover, in the data set on cornea, the “presence on outer surface of the eye” value was “washed away”. Besides, the GFP-fluorescence in skin entry in the data set with skin is on record as “Only minimal GFP-fluorescence”.
In [2], “POD-GFP: His-tagged POD-GFP fusion protein” registered a GFP-positive cells of 35.3±0.9%. For the same substance, the “cellular localization of exogenously added protein” value in the data set with HER cells [3] (HER cells) was “colocalize in part with Lysotracker”. In addition, the GFP-positive cells in the data set with HER cells [3] is 34.2±3.4%. In addition, in the data set with HER cells [4], the PI-positive cells is reported as 2.8±3.8%. Besides, the “localization of expressed protein” value in data set [5] is “relatively weak cytoplasmic and intense nuclear localization”. Also, the “binding to lens capsule” value in the data set with retina (intravitreal injection) is recorded as “very strong affinity”. Moreover, in the data set on retina (intravitreal, 6.6 μg, 6 hours), the “detection in retina” value was “readily detected in ganglion cells”. Besides, in the data set with retina (subretinal, 8.5 μg, 6 hours), the “detection in retina” value is given as “abundantly present in the outer nuclear layer” and the “transduction of the ONL, share of the retinal surface” value is on record as “up to 40%”. Also, in the data set with cornea, the “presence on outer surface of the eye” value is “detected on most of the ocular surface”. Further, in the data set on skin, the “duration of binding to mouse skin” value is “at least 24 hours” and the GFP-fluorescence in skin result was “significantly GFP-positive”.
